# Source: US8904703B2, “Herbicide method and apparatus” (priority 2011, dated 2014)
# Experiments:
# [1] = tested on: Kudzu vines (pueraria lobata); experiment: Field trials of helium gas applied to Kudzu vine root systems through a perforated tube; type: in vivo
# Text: With respect to the helium canister 33, two canisters, each having 0.25 cubic meters of helium gas under a pressure (when full) of at least 260 pounds per square inch (PSI), for a total of 0.5 cubic meters at standard atmospheric pressure and temperature provide a suitable herbicidal effect when the canister 33 (only one of which canisters is shown in the drawing) are applied in sequence in accordance with the invention. […] Naturally, for Kudzu eradication over larger areas, large helium tanks also have been used with great success.
# (§1) In operation, the chuck on a battery powered drill (not shown in the drawing) connects the drill to the drill shank 23. The tube 10 is placed near a Kudzu vine stem as that stem protrudes above the earth with the longitudinal tube axis 17 of the tube 10 generally perpendicular to the surface of earth 35 to press drill bit 11 against the soil. Preferably a 1.6 cm diameter black oxide coated drill bit is suitable for this purpose.
# (§2) The drill is energized and the torque applied by the drill turns the tube 10 and the drill bit 11, causing the drill bit 11 and the balance of the tube 10 to bore into the earth. The drilling is continued until all of the perforations in the two perforation sets 12A and 22A are well below the surface of the earth, whereupon the drill is deactivated and disconnected from the shank 23.
# (§3) A first of the two helium canisters 33 is then coupled through the flexible conduit 32 and the gas adapter 31 to the valve 28. Valve handle 34 is shifted to a valve open position and helium gas flows from the canister 33, through the valve 28 and into the hollow center 24 (FIG. 2) of the tube 10.
# Once in the tube 10, under the gas pressure supplied by the helium canister 33, the helium gas disperses into soil 36 surrounding the tube 10 through the perforations in the sets 12A and 22A and migrates in the soil 36 to Kudzu vine root 37. Upon depletion of the helium in the canister 33, the valve handle 34 is shifted to close the valve 28. […]
# surrounding plant life = experiment: Field trials: effect of the Kudzu vine treatment on surrounding plant life; type: in vivo; details: observed through growth of new grass and new leaf growth
# Text: as §1, §2, §3
# Once in the tube 10, under the gas pressure supplied by the helium canister 33, the helium gas disperses into soil 36 surrounding the tube 10 through the perforations in the sets 12A and 22A and migrates in the soil 36 to Kudzu vine root 37. […]
compound,measurement,setting,value
[He] [helium],Kudzu vine herbicidal result,"[1]; Balloon Time helium canisters, helium purity 94% to 96%, two canisters of 0.25 cubic meters applied in sequence",produced the desired Kudzu vine herbicidal result
same,Kudzu destroyed (estimated),"[1]; four weeks after exposure to helium, third test site",~95%
same,Kudzu vines destroyed,"[1]; four weeks after exposure to helium, two test sites, about 0.5 cubic meters helium into soil near roots",all of the Kudzu vines so treated were destroyed
same,Effect of Kudzu vine treatment on surrounding plant life,surrounding plant life,surprisingly beneficial
